Experimental data from patent publication US9790231B2 (LUPIN LIMITED, priority 2013, dated 2017).

Each compound was assayed on IL-2 secretion by Jurkat T cells (assay: Inhibition of IL-2 secretion (PHA-stimulated Jurkat T cells, ELISA)). Conditions: Homo sapiens, 20 to 24 hours.
Format: cell-based
Description: The CRAC channel modulatory activity of the compounds were thus evaluated by measuring the secretion of IL-2 by antigen stimulated T-cells in vitro. Alternatively, such activity can also be evaluated by assay methods known to one skilled in the art.
Inhibition of IL-2 secretion: Jurkat T cells were seeded at a density of 0.5 to 1 million cells per well in RPMI medium. Test compounds from this invention were added to the cells at different concentrations. This was followed by the addition of PHA, a T cell mitogen after 10 minutes. The cells were then incubated for 20 to 24 hours in a CO2 incubator at 37° C. After incubation with the compounds, cells were centrifuged; the supernatant was collected and processed for ELISA to quantitate the amount of IL-2 secreted. A commercial ELISA kit (R&D Systems, Inc. Minneapolis, Minn., USA) was used to estimate the IL-2 concentrations. Amount of IL-2 secreted by cells stimulated with PHA was considered as a 100% maximal signal and the decrease in amount of IL-2 secreted by cells treated with the test compounds was expressed as percent inhibition of the maximal signal. The dose response data was analyzed using 4-parametric sigmoidal dose response (variable slope) curve-fit.

SMILES	IC50
Cc1c(-c2cnc(NC(=O)c3c(F)cccc3F)cn2)ccc2c1OC(C)(C)CC2 [Example 7, 2,6-Difluoro-N-(5-(2,2,8-trimethylchroman-7-yl)pyrazin-2-yl)benzamide]	50 to 100 nM
COCC1(C)C=C(c2ccc(NC(=O)c3c(F)cccc3F)cc2)c2cc(C)ccc2O1 (centres unmarked) [Example 91]	25 to 50 nM
Cc1ccc2c(c1)C(c1ccc(NC(=O)c3c(F)cccc3F)cc1)=CC(C)(CO)O2 (centres unmarked) [Example 95, 2,6-Difluoro-N-(4-(2-(hydroxymethyl)-2,6-dimethyl-2H-chromen-4-yl)phenyl)benzamide]	50 to 100 nM
Cc1ccc2c(c1)C(c1cnc(NC(=O)c3c(F)cccc3F)cn1)=CC1(CCC1)O2 [Example 76, 2,6-Difluoro-N-(5-(6-methylspiro[chromene-2,1′-cyclobutan]-4-yl)pyrazin-2-yl)benzamide]	50 to 100 nM
Cc1cc2c(cc1-c1cnc(NC(=O)c3c(F)cccc3F)cn1)OC(C)(CO)CC2 (centres unmarked) [Example 114, 2,6-Difluoro-N-(5-(2-(hydroxymethyl)-2,6-dimethylchroman-7-yl)pyrazin-2-yl)benzamide]	25 to 50 nM
CC1(CO)C=C(c2ccc(NC(=O)c3c(F)cccc3F)cc2)c2ccccc2O1 (centres unmarked) [Example 93, 2,6-Difluoro-N-(4-(2-(hydroxymethyl)-2-methyl-2H-chromen-4-yl)phenyl)benzamide]	50 to 100 nM
CC1(C)CC(c2ccc(NC(=O)c3c(F)cccc3F)cc2)c2ccccc2O1 (centres unmarked) [Example 80, N-(4-(2,2-Dimethylchroman-4-yl)phenyl)-2,6-difluorobenzamide]	100 to 500 nM
Cc1cc2c(cc1-c1ccc(C(=O)Nc3c(Cl)cncc3Cl)cc1)OC1(CCC1)CC2 [Example 67, N-(3,5-Dichloropyridin-4-yl)-4-(6-methylspiro[chroman-2,1′-cyclobutan]-7-yl)benzamide]	25 to 50 nM
Cc1cc2c(cc1-c1ccc(NCc3c(F)cccc3F)cc1)OC(C)(C)CC2=O [Example 33, 7-(4-((2,6-Difluorobenzyl)amino)phenyl)-2,2,6-trimethylchroman-4-one]	< 25 nM

Other lines, results leading:

IC50	SMILES
< 25 nM	Cc1cc2c(cc1-c1ccc(NC(=O)c3c(F)cccc3F)cc1)OC1(CCC1)CC2=O [Example 16, 2,6-Difluoro-N-(4-(6-methyl-4-oxospiro[chroman-2,1′-cyclobutan]-7-yl)phenyl)benzamide]
< 25 nM	Cc1cc2c(cc1-c1cnc(NC(=O)c3c(F)cccc3F)cn1)OC1(CCC1)CC2=O [Example 36, 2,6-Difluoro-N-(5-(6-methyl-4-oxospiro[chroman-2,1′-cyclobutan]-7-yl)pyrazin-2-yl)benzamide]
< 25 nM	CCc1cc2c(cc1-c1ccc(NC(=O)c3c(F)cccc3F)cc1)OC(C)(C)CC2 [Example 48b, N-(4-(6-Ethyl-2,2-dimethylchroman-7-yl)phenyl)-2,6-difluorobenzamide]
< 25 nM	CCc1cc2c(cc1-c1ccc(NC(=O)c3c(F)cccc3F)cc1)OC1(CCC1)CC2=O [Example 20, N-(4-(6-Ethyl-4-oxospiro[chroman-2,1′-cyclobutan]-7-yl)phenyl)-2,6-difluorobenzamide]
< 25 nM	Cc1cc2c(cc1-c1ccc(NC(=O)c3c(F)cccc3F)cc1)OC(C)(CO)CC2=O (centres unmarked) [Example 51, 2,6-Difluoro-N-(4-(2-(hydroxymethyl)-2,6-dimethyl-4-oxochroman-7-yl)phenyl)benzamide]
50 to 100 nM	Cc1cc2c(cc1-c1ccc(NC(=O)c3c(F)cccc3F)cc1)C(=O)CC1(CCC1)O2 [Example 17, 2,6-Difluoro-N-(4-(7-methyl-4-oxospiro[chroman-2,1′-cyclobutan]-6-yl)phenyl)benzamide]
< 25 nM	Cc1cc2c(cc1-c1ccc(NCc3c(F)cccc3F)nc1)OC1(CCC1)CC2=O [Example 39, 7-(6-((2,6-Difluorobenzyl)amino)pyridin-3-yl)-6-methylspiro[chroman-2,1′-cyclobutan]-4-one]
25 to 50 nM	Cc1cc2c(cc1-c1ccc(C(=O)Nc3c(F)cccc3F)cc1)OC1(CCC1)CC2=O [Example 13, N-(2,6-Difluorophenyl)-4-(6-methyl-4-oxospiro[chroman-2,1′-cyclobutan]-7-yl)benzamide]
